Read-outs that look alike come from different tables or passages of the source.
Assays:
[1] = system: OVCAR8 human ovarian cancer cell line; test: Cell growth, resazurin assay, OVCAR8; format: cell-based; settings: 72-h exposure
Description: (§4) Cells were cultured in 10 mL of Advanced DMEM/F12 (ADMEM/F12), supplemented with 5% FBS, 2 mM GlutaMAX, and 1% Penicillin-Streptomycin in 10 cm tissue culture plates. Cells were then plated into 96-well plates with about 2.5×10^3 cells per well. Cells were plated with 200 μL per well of ADMEM/F12 supplemented with 5% FBS, 2 mM GlutaMAX, and 1% Penicillin-Streptomycin. Cells were treated with dose responses of doxorubicin, oxaliplatin, or doxaliplatin upon plating. The cells were then cultured for 72 hours following drug treatment, and cell growth was measured by resazurin assay.

[2] = system: A2780 human ovarian cancer cell line; test: Cell growth, resazurin assay, A2780; format: cell-based; settings: A2780, 72-h exposure
Description: as §4

[3] = system: MDA-MB-231 human breast adenocarcinoma; test: Cell growth, resazurin assay, MDA-MB-231; format: cell-based; settings: 96-h exposure (table title)
Description: as §4

[4] = system: APC−/−; KRASG12D/WT; P53−/−; TdTomato+ (AKP-tdt) organoids; test: Viability of AKP-tdt murine colorectal cancer organoids, resazurin assay; format: cell-based; settings: 72-h exposure (table title), read-out: IC50 against AKP-tdt organoids
Text: (§1) Colonic crypts were isolated and colon organoids were generated from the following mouse genotypes on a C57Bl/6 background: 1. Rosa-LSL-TdTomato (hereafter LSL-tdt), 2. P53^f1/f1; LSL-tdt, and 3. LSL-KRAS^G12D/WT; P53^fl/fl; LSL-tdt mice. Subsequently, the pSECC-APC plasmid (carrying Cre, Cas9, and sgAPC) was transfected into each of the above three genotypes of colon organoids. This transfection strategy generated, in a single step, the following colorectal cancer organoids, including 1. APC^−/−; TdTomato^+ (A-tdt), 2. APC^−/−; P53^−/−; TdTomato^+ (AP-tdt), and 3. APC^−/−; KRAS^G12D/WT; P53^−/−; TdTomato^+ (AKP-tdt). Organoids of the desired genotype were selected for by Wnt/Rspo withdrawal for APC^−/−, Nutlin-3 addition for P53^−/−, and EGF withdrawal for KRAS^G12D.
(§2) Twenty four hours after seeding the organoids, a media change was performed and dose responses of oxaliplatin, doxorubicin and doxaliplatin were added. […] Organoids were cultured in Advanced DMEM/F12 supplemented with 2 mM GlutaMAX, 1% Penicillin-Streptomycin, 2% B27, and Y-27632 (10 μM).

[5] = system: A2780 human ovarian cancer cell line; settings: human, 3 h
Description: (§5) ICP-MS was performed on an Agilent 7900 ICP-MS in helium mode.
(§6) The cells in a six-well plate were treated with oxaliplatin, doxaliplatin, or a mixture of doxorubicin and oxaliplatin at indicated concentration in 2 mL of Advanced DMEM/F12 (ADMEM/F12), supplemented with 5% FBS, 2 mM GlutaMAX, and 1% Penicillin-Streptomycin. After three hours, the media were removed. The cells were washed with xl PBS buffer containing EDTA (100 μM, 4 mL×2). To each well, MilliQ water (1.0 mL) was added. After 15 min, the cells were suspended. A portion of the resulting cell lysate (900 μL) was transferred to an Eppendorf tube. The samples were frozen in liquid nitrogen and thawed at room temperature. This procedure was repeated for three times. The insoluble lysate was pelleted (10000 rpm for 10 min). […] Pierce 660 nm Protein solution (200 μL) was added to each well. An aliquot of the lysate (14.2 μL) was added to each well. The plate was shaken and read on a plate reader. The remaining samples were frozen at liquid nitrogen temperature and lyophilized. The dried material was digested with Aristar® ultrapure concentrated nitric acid (70%) at 70° C. for one hour. An aliquot of this solution (142 μL) was mixed with molecular biology grade water (2000 μL) and a terbium internal standard (40 μL, 100 ppb). The platinum content was then determined using an Agilent 7900 ICP-MS in helium mode. The concentration of platinum in the cells was normalized to measured protein concentration described above.

[6] = system: cisplatin-resistant A2780CIS human ovarian cancer cell line; test: Cell growth, resazurin assay, A2780CIS; format: cell-based; settings: 72-h exposure
Description: as §4

[7] = system: doxorubicin-resistant A2780ADR human ovarian cancer cell line; test: Cell growth, resazurin assay, A2780ADR; format: cell-based; settings: 72-h exposure
Description: as §4

[8] = system: PC3 human prostate adenocarcinoma; test: Cell growth, resazurin assay, PC3; format: cell-based; settings: 96-h exposure (table title)
Description: as §4

[9] = system: A549 human lung carcinoma; test: Cell growth, resazurin assay, A549; format: cell-based; settings: 96-h exposure (table title)
Description: as §4

[10] = system: APC−/−; KRASG12D/WT; P53−/− (AKP) organoids; test: Viability of AKP murine colorectal cancer organoids; format: cell-based; settings: 72-h exposure, read-out: IC50 against AKP organoids
Text: (§3) To generate 4. APC^−/−; KRAS^G12D/WT; P53^−/−; (AKP) and 5. APC^−/−; KRAS^G12D/WT; P53^−/−; MSH2^−/− (AKP-MSH2) colon cancer organoids, colonic crypts were isolated and colon organoids were generated from the following mouse genotypes on a C57Bl/6 background: 4. LSL-KRAS^G12D/WT; P53^fl/fl mice and 5. LSL-KRAS^G12D; P53^fl/fl; MSH2^fl/fl mice. Subsequently, the pSECC-APC plasmid (carrying Cre, Cas9, and sgAPC) was transfected into each of the above two genotypes of colon organoids. Following pSECC-APC transfection, Wnt/Rspo withdrawal was performed and surviving (APC^−/−) single organoids were cloned and PCR genotyped for Cre mediated deletion of p53 and/or MSH2, and for Cre mediated activation of oncogenic KRAS^G12D.
as §2

[11] = system: APC−/−; P53−/−; TdTomato+ (AP-tdt) organoids; test: Viability of AP-tdt murine colorectal cancer organoids, resazurin assay; format: cell-based; settings: 72-h exposure (table title), read-out: IC50 against AP-tdt organoids
Text: as §1, §2

U2OS human osteosarcoma = test: Cell growth, resazurin assay, U2OS; format: cell-based; settings: 96-h exposure (table title), read-out: IC50 U2OS (bone)
Description: as §4

[12] = system: APC−/−; TdTomato+ (A-tdt) organoids; test: Viability of A-tdt murine colorectal cancer organoids, resazurin assay; format: cell-based; settings: 72-h exposure (table title), read-out: IC50 against A-tdt organoids
Text: as §1, §2

[13] = system: APC−/−; KRASG12D/WT; P53−/−; MSH2−/− (AKP-MSH2) organoids; test: Viability of AKP-MSH2 murine colorectal cancer organoids; format: cell-based; settings: 72-h exposure, read-out: IC50 against AKP-MSH2 organoids
Text: as §3, §2

[14] = system: OVCAR8-OXR oxaliplatin-resistant human ovarian cancer cell line; test: Cell growth, resazurin assay, OVCAR8-OXR; settings: for IC50: read-out: IC50 OVCAR8OXR; for IC80: read-out: IC80 OVCAR8OXR; for Fold Resistance (IC50, OVCAR8OXR vs OVCAR8): based on IC50 values; for Fold Resistance (IC80, OVCAR8OXR vs OVCAR8): based on IC80 values
Description: Cells were cultured in 10 mL of Advanced DMEM/F12 (ADMEM/F12), supplemented with 5% FBS, 2 mM GlutaMAX, and 1% Penicillin-Streptomycin in 10 cm tissue culture plates. Cells were then plated into 96-well plates with about 2.5×10^3 cells per well. Cells were plated with 200 μL per well of ADMEM/F12 supplemented with 5% FBS, 2 mM GlutaMAX, and 1% Penicillin-Streptomycin. […] The cells were then cultured for 72 hours following drug treatment, and cell growth was measured by resazurin assay.

[15] = system: HT-29 human colorectal adenocarcinoma; test: Cell growth, resazurin assay, HT-29; format: cell-based; settings: 96-h exposure (table title), read-out: IC50 HT-29 (colon)
Description: as §4

[16] = system: doxorubicin-resistant A2780ADR ovarian cancer cell line
Description: as §5, §6

[17] = system: HL60 human leukemia cell line; test: Cell growth, resazurin assay, HL60; format: cell-based; settings: 96-h exposure (table title)
Description: as §4

[18] = system: A2780 human ovarian cancer cell line; test: Whole-cell platinum uptake by ICP-MS, A2780; settings: three hours
Description: as §5, §6

`COc1cccc2c1C(=O)c1c(O)c3c(c(O)c1C2=O)C[C@@](O)(C(=O)CO)C[C@@H]3O[C@H]1C[C@H](N)[C@H](O)[C@H](C)O1` [DOX, doxorubicin] was tested. Which IC50 ([1]; Homo sapiens, OVCAR-8) did it give?
Its IC50 is 86 ± 3 nM.

What about the IC80 ([1]; Homo sapiens, OVCAR-8) of the same compound?
The IC80 was 410 ± 20 nM.

What about the IC95 [2] of the same compound?
The IC95 was 160 nM.

What about the IC50 ([2]; Homo sapiens) of the same compound?
Its IC50 is 11 nM.

And the IC90 ([2]; Homo sapiens)?
The IC90 was 75 nM.

What about the IC50 ([3]; Homo sapiens, MDA-MB-231) of the same compound?
Its IC50 is 75 nM.

And the IC50 ([4]; Mus musculus)?
Its IC50 is 75 nM.

What about the Platinum drug uptake ([5]; 0.2 μM) of the same compound?
The Platinum drug uptake was 0.023 ± 0.002 nmol/mg protein.

And the Platinum drug uptake ([5]; 1 μM)?
The Platinum drug uptake was 0.12 ± 0.01 nmol/mg protein.

And the Platinum drug uptake ([5]; 5 μM)?
Its Platinum drug uptake is 0.63 ± 0.03 nmol/mg protein.

And the IC95 [6]?
The IC95 was 540 nM.

And the IC50 ([6]; Homo sapiens)?
Its IC50 is 50 nM.

And the IC90 ([6]; Homo sapiens)?
The IC90 was 390 nM.

And the IC95 [7]?
The IC95 was 1600 nM.

And the IC50 ([7]; Homo sapiens, A2780 ADR)?
Its IC50 is 54 nM.

What about the IC90 ([7]; Homo sapiens, A2780 ADR) of the same compound?
Its IC90 is 620 nM.

What about the IC50 ([8]; Homo sapiens) of the same compound?
The IC50 was 41 nM.

And the IC50 ([9]; Homo sapiens, A549)?
The IC50 was 23 nM.

And the IC50 ([10]; Mus musculus)?
Its IC50 is 9.1 nM.

And the IC50 ([11]; Mus musculus)?
Its IC50 is 45 nM.

What about the IC50 (U2OS human osteosarcoma; Homo sapiens, U2OS) of the same compound?
Its IC50 is 13 nM.

And the IC50 ([12]; Mus musculus)?
Its IC50 is 58 nM.

And the IC50 ([13]; Mus musculus)?
Its IC50 is 6.5 nM.

What about the IC50 ([14]; Homo sapiens, 72 h) of the same compound?
The IC50 was 250 ± 10 nM.

What about the IC80 ([14]; Homo sapiens, 72 h) of the same compound?
The IC80 was 740 ± 50 nM.

And the “Fold Resistance (IC50, OVCAR8OXR vs OVCAR8)” value ([14]; 72-h exposure)?
Its value is 2.9 fold.

What about the “Fold Resistance (IC80, OVCAR8OXR vs OVCAR8)” value ([14]; 72-h exposure) of the same compound?
Its value is 1.8 fold.

What about the IC50 ([15]; Homo sapiens, HT-29) of the same compound?
Its IC50 is 38 nM.

And the Platinum drug uptake ([16]; human, 3 h, 0.2 μM)?
Its Platinum drug uptake is 0.0087 ± 0.0008 nmol/mg protein.

What about the Platinum drug uptake ([16]; human, 3 h, 1 μM) of the same compound?
The Platinum drug uptake was 0.051 ± 0.001 nmol/mg protein.

What about the Platinum drug uptake ([16]; human, 3 h, 5 μM) of the same compound?
Its Platinum drug uptake is 0.36 ± 0.07 nmol/mg protein.

What about the IC50 ([17]; Homo sapiens, HL-60) of the same compound?
Its IC50 is 43 nM.

Which IC50 [1] does the source give for `O=C1[O][Pt]2([NH][C@@H]3CCCC[C@H]3[NH]2)[O]C1=O` [Ox, oxaliplatin] here?
The IC50 was 580 ± 60 nM.

And the IC80 [1]?
The IC80 was 12000 ± 3000 nM.

What about the IC50 [2] of the same compound?
Its IC50 is 170 nM.

What about the IC90 [2] of the same compound?
Its IC90 is 590 nM.

What about the IC95 [2] of the same compound?
Its IC95 is 5600 nM.

What about the IC50 [3] of the same compound?
Its IC50 is 920 nM.

And the IC50 [4]?
Its IC50 is 4100 nM.

What about the IC50 [6] of the same compound?
The IC50 was 430 nM.

And the IC90 [6]?
Its IC90 is 6600 nM.

What about the IC95 [6] of the same compound?
Its IC95 is 13000 nM.

And the IC50 [7]?
Its IC50 is 430 nM.

What about the IC90 [7] of the same compound?
Its IC90 is 2400 nM.

And the IC95 [7]?
The IC95 was 29000 nM.

What about the IC50 [8] of the same compound?
The IC50 was 1000 nM.

What about the IC50 [9] of the same compound?
Its IC50 is 400 nM.

What about the IC50 [10] of the same compound?
The IC50 was 1400 nM.

What about the IC50 [11] of the same compound?
Its IC50 is 1500 nM.

What about the IC50 (U2OS human osteosarcoma) of the same compound?
Its IC50 is 580 nM.

And the IC50 [12]?
The IC50 was 2200 nM.

What about the IC50 [13] of the same compound?
Its IC50 is 2200 nM.

And the Platinum drug uptake ([18]; A2780, [Drug] 0.20 μM)?
The Platinum drug uptake was 0.0029 ± 0.0006 nmol/mg protein.

What about the Platinum drug uptake ([18]; A2780, [Drug] 1.0 μM) of the same compound?
The Platinum drug uptake was 0.0093 ± 0.0004 nmol/mg protein.

And the Platinum drug uptake ([18]; A2780, [Drug] 5.0 μM)?
The Platinum drug uptake was 0.050 ± 0.004 nmol/mg protein.

What about the “Platinum drug uptake (separate comparison experiment)” value ([18]; A2780, single drug 1.0 μM or oxaliplatin 1.0 μM + doxorubicin 1.0 μM) of the same compound?
Its value is 0.011 ± 0.000 nmol/mg protein.

What about the “Fold Resistance (IC50, OVCAR8OXR vs OVCAR8)” value ([14]; 72-h exposure) of the same compound?
Its value is 14 fold.

And the “Fold Resistance (IC80, OVCAR8OXR vs OVCAR8)” value ([14]; 72-h exposure)?
The value was 3.3 fold.

What about the IC50 ([14]; 72-h exposure) of the same compound?
The IC50 was 8200 ± 1300 nM.

What about the IC80 ([14]; 72-h exposure) of the same compound?
The IC80 was 40000 ± 2000 nM.

And the IC50 [15]?
Its IC50 is 470 nM.

What about the “Platinum drug uptake (separate comparison experiment)” value [16] of the same compound?
The value was 0.0065 ± 0.0004 nmol/mg protein.

What about the Platinum drug uptake ([16]; A2780ADR, [Drug] 0.20 μM, three hours) of the same compound?
The Platinum drug uptake was 0.0011 ± 0.0004 nmol/mg protein.

What about the Platinum drug uptake ([16]; A2780ADR, [Drug] 1.0 μM, three hours) of the same compound?
The Platinum drug uptake was 0.0039 ± 0.0001 nmol/mg protein.

What about the Platinum drug uptake ([16]; A2780ADR, [Drug] 5.0 μM, three hours) of the same compound?
Its Platinum drug uptake is 0.023 ± 0.001 nmol/mg protein.

And the IC50 [17]?
The IC50 was 560 nM.

Source: patent US11203608B2, “Platinum-containing compounds, and related compositions and uses thereof” (Massachusetts Institute of Technology, priority 2019, dated 2021)
